From patent US6803380B1, “5-aryl-1h-1,2,4-triazole compounds as inhibitors of cyclooxygenase-2 and pharmaceutical compositions containing them” (Laboratoire Theramex, priority 1999, dated 2004)
Like-named read-outs stand apart in the source and are kept apart here. Blank lines part the entries; values can stand above or below the compound they belong to.

Legend:
COX-1 = target: T1, COX-1 (Ovis aries, UniProt P05979); test: Inhibition of purified COX-1 activity in vitro (PGE2 by enzymo-immunoassay); assay type: biochemical, ram; settings: for % COX-1 inhibition: negative sign = inhibition
T1 construct: Purified COX-1 from ram seminal vesicles; purchased Cayman Chemicals; host or cells: ram seminal vesicles (tissue-purified)
T1 sequence (P05979 25-600): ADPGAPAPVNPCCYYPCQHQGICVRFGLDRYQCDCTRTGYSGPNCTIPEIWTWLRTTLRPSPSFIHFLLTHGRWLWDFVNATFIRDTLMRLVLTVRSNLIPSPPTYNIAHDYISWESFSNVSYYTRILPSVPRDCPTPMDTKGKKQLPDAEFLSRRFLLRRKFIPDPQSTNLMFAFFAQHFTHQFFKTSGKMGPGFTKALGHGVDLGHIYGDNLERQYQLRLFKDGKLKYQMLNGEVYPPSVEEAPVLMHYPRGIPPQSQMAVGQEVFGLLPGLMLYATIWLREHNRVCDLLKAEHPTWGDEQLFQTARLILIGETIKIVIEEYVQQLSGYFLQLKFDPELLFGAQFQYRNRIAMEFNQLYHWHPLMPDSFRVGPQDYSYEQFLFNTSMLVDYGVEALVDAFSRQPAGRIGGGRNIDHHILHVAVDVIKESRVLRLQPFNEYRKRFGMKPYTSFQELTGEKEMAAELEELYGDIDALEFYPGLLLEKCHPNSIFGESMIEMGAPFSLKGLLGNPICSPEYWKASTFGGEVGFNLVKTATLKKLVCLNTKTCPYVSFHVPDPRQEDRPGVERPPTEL
Protocol: (§1) Example compounds according to the invention were tested for their ability to inhibit COX-1 and/or COX-2 activities in vitro. Purified COX-1 from ram seminal vesicles and purified COX-2 from ewe placenta (both from Cayman Chemicals) were incubated for 10 minutes at 25° C. in the presence of their substrate, arachidonic acid (5 μM), with or without test compounds or standard inhibitors. Prostaglandin E2, the reaction product, was measured by enzymo-immunoassay (R&D Systems). Each individual value results from duplicate determinations. Final inhibition data are means±standard errors of at least (3) independent experiments performed on as many different days.

COX-2 = target: T2, COX-2 (Ovis aries, UniProt P79208); test: Inhibition of purified COX-2 activity in vitro (PGE2 by enzymo-immunoassay); assay type: biochemical, ewe; settings: for COX-2 inhibitory potency compared with nimesulide (in words): same concentration, 1 μM
T2 construct: purified COX-2 from ewe placenta; purchased Cayman Chemicals; host or cells: ewe placenta (tissue-purified)
T2 sequence (P79208 17-603): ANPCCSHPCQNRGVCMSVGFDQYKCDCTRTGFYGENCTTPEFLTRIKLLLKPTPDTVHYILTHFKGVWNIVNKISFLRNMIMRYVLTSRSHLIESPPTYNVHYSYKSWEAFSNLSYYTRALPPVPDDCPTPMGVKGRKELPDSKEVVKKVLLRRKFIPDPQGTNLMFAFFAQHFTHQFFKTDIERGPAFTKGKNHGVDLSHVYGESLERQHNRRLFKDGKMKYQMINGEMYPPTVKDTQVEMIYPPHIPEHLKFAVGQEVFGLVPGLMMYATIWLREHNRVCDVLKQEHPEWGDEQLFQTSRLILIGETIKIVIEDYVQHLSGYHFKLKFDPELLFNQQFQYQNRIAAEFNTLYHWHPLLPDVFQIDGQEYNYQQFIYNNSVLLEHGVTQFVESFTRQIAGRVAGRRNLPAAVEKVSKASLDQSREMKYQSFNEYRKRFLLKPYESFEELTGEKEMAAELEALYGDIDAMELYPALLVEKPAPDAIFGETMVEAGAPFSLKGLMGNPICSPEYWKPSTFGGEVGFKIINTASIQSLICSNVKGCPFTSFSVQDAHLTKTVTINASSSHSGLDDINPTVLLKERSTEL
Protocol: as §1

[1] = concentration 1 μM, read-out: % COX-2 inhibition

SMILES: COc1ccc(-n2nc(C)nc2-c2ccc(S(C)(=O)=O)cc2)cc1 [Example 10, 1-(4-methoxy-phenyl)-3-methyl-5-(4-methylsulfonyl-phenyl)-1H-1,2,4-triazole]
- inhibition of COX-1 (in words) (COX-1; concentration 1 μM): did not show any significant inhibition of COX-1
- % COX-1 inhibition (COX-1; concentration 1 μM): −4 ± 14.6%
- selective inhibition of COX-2 (in words) (COX-2; concentration 1 μM): able to inhibit COX-2 selectively
- inhibition at 1 µM (COX-2; [1]): 32 ± 4.5%
- melting point: 128 °C

SMILES: Cc1nc(-c2ccc(S(C)(=O)=O)cc2)n(-c2ccccc2)n1 [Example 5, 3-methyl-5-(4-methylsulfonyl-phenyl)-1-phenyl-1H-1,2,4-triazole]
- melting point: 146 °C

SMILES: CS(=O)(=O)c1ccc(-c2nc(C(F)(F)F)nn2-c2ccc(Cl)cc2)cc1 [Example 21, 1-(4-chloro-phenyl)-5-(4-methylsulfonyl-phenyl)-3-trifluoromethyl-1H-1,2,4-triazole]
- melting point: 190 to 192 °C

SMILES: Cc1nc(-c2ccc(S(C)(=O)=O)cc2)n(-c2ccc([N+](=O)[O-])cc2)n1 [Example 12, 3-methyl-5-(4-methylsulfonyl-phenyl)-1-(4-nitro-phenyl)-1H-1,2,4-triazole]
- melting point: 180 °C

SMILES: COc1ccc(-n2nc(C)nc2-c2ccc(S(C)(=O)=O)cc2)cc1OC [Example 14, 1-(3,4-dimethoxy-phenyl)-3-methyl-5-(4-methylsulfonyl-phenyl)-1H-1,2,4-triazole]
- melting point: 186 °C

SMILES: Cc1nc(-c2ccc(S(C)(=O)=O)cc2)n(-c2ccc(F)cc2F)n1 [Example 11, 1-(2,4-difluoro-phenyl)-3-methyl-5-(4-methylsulfonyl-phenyl)-1H-1,2,4-triazole]
- melting point: 160 °C

SMILES: Cc1nc(-c2ccc(S(C)(=O)=O)cc2)n(-c2ccccc2Cl)n1 [Example 6, 1-(2-chloro-phenyl)-3-methyl-5-(4-methylsulfonyl-phenyl)-1H-1,2,4-triazole]
- melting point: 170 °C

SMILES: Cc1nc(-c2ccc(S(C)(=O)=O)cc2)n(-c2ccc(F)c(F)c2)n1 [Example 13, 1-(3,4-difluoro-phenyl)-3-methyl-5-(4-methylsulfonyl-phenyl)-1H-1,2,4-triazole]
- melting point: 194 °C

SMILES: Cc1nc(-c2ccc(S(C)(=O)=O)cc2)n(-c2cccc(Cl)c2)n1 [Example 7, 1-(3-chloro-phenyl)-3-methyl-5-(4-methylsulfonyl-phenyl)-1H-1,2,4-triazole]
- melting point: 130 °C

SMILES: Cc1nc(-c2ccc(S(C)(=O)=O)cc2)n(-c2ccc(N(C)C)cc2)n1 [Example 15, 1-(4-dimethylamino-phenyl)-3-methyl-5-(4-methylsulfonyl-phenyl)-1H-1,2,4-triazole]
- inhibition of COX-1 (in words) (COX-1; concentration 1 μM): did not show any significant inhibition of COX-1
- % COX-1 inhibition (COX-1; concentration 1 μM): +2 ± 7.0%
- selective inhibition of COX-2 (in words) (COX-2; concentration 1 μM): able to inhibit COX-2 selectively
- inhibition at 1 µM (COX-2; [1]): 18 ± 7%
- melting point: 200 °C

SMILES: CS(=O)(=O)c1ccc(-c2nc(C(F)(F)F)nn2C2CCCCC2)cc1 [Example 22, 1-(cyclohexyl)-5-(4-methylsulfonyl-phenyl)-3-trifluoromethyl-1H-1,2,4-triazole]
- melting point: 136 °C

SMILES: Cc1ccc(-n2nc(C)nc2-c2ccc(S(C)(=O)=O)cc2)cc1 [Example 4, 3-methyl-1-(4-methyl-phenyl)-5-(4-methylsulfonyl-phenyl)-1H-1,2,4-triazole]
- melting point: 176 °C

SMILES: CS(=O)(=O)c1ccc(-c2nc(C(F)(F)F)nn2-c2ccc(F)cc2)cc1 [Example 20, 1-(4-fluoro-phenyl)-5-(4-methylsulfonyl-phenyl)-3-trifluoromethyl-1H-1,2,4-triazole]
- melting point: 230 to 232 °C

SMILES: CS(=O)(=O)c1ccc(-c2nc(C(F)(F)F)nn2-c2cccnc2)cc1.Cl
- melting point: 180 °C

SMILES: CS(=O)(=O)c1ccc(-c2nc(C(F)(F)F)nn2-c2ccc(Br)cc2)cc1 [Example 18, 1-(4-bromo-phenyl)-5-(4-methylsulfonyl-phenyl)-3-trifluoromethyl-1H-1,2,4-triazole]
- inhibition of COX-1 (in words) (COX-1; concentration 1 μM): did not show any significant inhibition of COX-1
- % COX-1 inhibition (COX-1; concentration 1 μM): −5 ± 12%
- selective inhibition of COX-2 (in words) (COX-2; concentration 1 μM): able to inhibit COX-2 selectively
- inhibition at 1 µM (COX-2; [1]): 53%
- COX-2 inhibitory potency compared with nimesulide (in words) (COX-2): even more potent
- COX-2 potency relative to nimesulide (COX-2; same inhibition at 1 μM vs. 10 μM nimesulide): about 10 times
- melting point: 198 °C

SMILES: Cc1nc(-c2ccc(S(C)(=O)=O)cc2)n(-c2ccc(F)cc2)n1 [Example 2, 1-(4-fluoro-phenyl)-3-methyl-5-(4-methylsulfonyl-phenyl)-1H-1,2,4-triazole]
- melting point: 180 °C

SMILES: Cc1nc(-c2ccc(S(C)(=O)=O)cc2)n(-c2ccc(Br)cc2)n1 [Example 9, 1-(4-bromo-phenyl)-3-methyl-5-(4-methylsulfonyl-phenyl)-1H-1,2,4-triazole]
- melting point: 188 °C

More lines, main results first:

- melting point: 180 °C
SMILES: COc1ccc(-n2nc(C(F)(F)F)nc2-c2ccc(S(C)(=O)=O)cc2)cc1F [Example 33, 1-(3-fluoro-4-methoxy-phenyl)-5-(4-methylsulfonyl-phenyl)-3-trifluoromethyl-1H-1,2,4-triazole]

- melting point: 214 °C
SMILES: CS(=O)(=O)c1ccc(-c2nc(C(F)(F)F)nn2-c2ccc(S(C)(=O)=O)cc2)cc1 [Example 26, 1,5-di-(4-methylsulfonyl-phenyl)-3-trifluoromethyl-1H-1,2,4-triazole]

- melting point: 185 °C
SMILES: CS(=O)(=O)c1ccc(-c2nc(C(F)(F)F)nn2-c2ccc3c(c2)OCO3)cc1 [Example 28, 1-(3,4-methylenedioxy-phenyl)-5-(4-methylsulfonyl-phenyl)-3-trifluoromethyl-1H-1,2,4-triazole]

- % COX-1 inhibition (COX-1; concentration 1 μM): −16 ± 10%
- selective inhibition of COX-2 (in words) (COX-2; concentration 1 μM): able to inhibit COX-2 selectively
- inhibition at 1 µM (COX-2; [1]): 78 ± 2%
- COX-2 inhibitory potency compared with nimesulide (in words) (COX-2): even more potent
SMILES: COc1ccc(-n2nc(C(F)(F)F)nc2-c2ccc(S(N)(=O)=O)cc2)cc1 [Example 34, 1-(4-methoxy-phenyl)-5-(4-aminosulfonyl-phenyl)-3-trifluoromethyl-1H-1,2,4-triazole]
- inhibition of COX-1 (in words) (COX-1; concentration 1 μM): did not show any significant inhibition of COX-1

- melting point: 140 °C
SMILES: COc1ccc(-n2nc(C(F)(F)F)nc2-c2ccc(S(C)(=O)=O)cc2)cc1OC [Example 27, 1-(3,4-dimethoxy-phenyl)-5-(4-methylsulfonyl-phenyl)-3-trifluoromethyl-1H-1,2,4-triazole]

- melting point: 148 °C
SMILES: COc1ccc(-n2nc(C(F)(F)F)nc2-c2ccc(S(C)(=O)=O)cc2Cl)cc1 [Example 24, 5-(2-chloro-4-methylsulfonyl-phenyl)-1-(4-methoxy-phenyl)-3-trifluoromethyl-1H-1,2,4-triazole]

- % COX-1 inhibition (COX-1; concentration 1 μM): −5 ± 9%
- selective inhibition of COX-2 (in words) (COX-2; concentration 1 μM): able to inhibit COX-2 selectively
- inhibition at 1 µM (COX-2; [1]): 31 ± 10%
- melting point: 188 °C
SMILES: CS(=O)(=O)Nc1ccc(-n2nc(C(F)(F)F)nc2-c2ccc(S(C)(=O)=O)cc2)cc1 [Example 25, 1-(4-methylsulfonylamino-phenyl)-5-(4-methylsulfonyl-phenyl)-3-trifluoromethyl-1H-1,2,4-triazole]
- inhibition of COX-1 (in words) (COX-1; concentration 1 μM): did not show any significant inhibition of COX-1

- % COX-1 inhibition (COX-1; concentration 0.1 μM): +7 ± 6.6%
- % COX-1 inhibition (COX-1; concentration 1 μM): +16 ± 12.2%
- % COX-1 inhibition (COX-1; concentration 10 μM): +13 ± 8.3%
- inhibition at 0.1 µM (COX-2; read-out: % COX-2 inhibition): 23 ± 5.4%
- inhibition at 1 µM (COX-2; read-out: % COX-2 inhibition): 30 ± 3.2%
- inhibition at 10 µM (COX-2; read-out: % COX-2 inhibition): 50%
SMILES: CS(=O)(=O)Nc1ccc([N+](=O)[O-])cc1Oc1ccccc1 [Nimesulide, reference compound]

- melting point: 142 °C
SMILES: COc1ccc(Cn2nc(C(F)(F)F)nc2-c2ccc(S(C)(=O)=O)cc2)cc1OC [Example 23, 1-(3,4-dimethoxy-phenyl-methyl)-5-(4-methylsulfonyl-phenyl)-3-trifluoromethyl-1H-1,2,4-triazole]
